In US10294202B2, “Pyrrolidinones as herbicides” (FMC Corporation, priority 2013, dated 2019):

Columns and labels:
deadnettle = test: Test D pre-/postemergence herbicide test; format: in vivo, Lamium amplexicaule; settings: Preemergence; for Plant response rating, Deadnettle: scale 0 to 100 (0 no effect, 100 complete control); for Plant response rating: 250 g ai/ha, Deadnettle, scale 0 to 100
Outline: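 Seeds sown in silt loam were sprayed preemergence with test chemicals in a non-phytotoxic solvent mixture with surfactant. Postemergence plants grown in peat/vermiculite medium were treated at 2–18 cm (1- to 4-leaf stage). After 7 to 21 days in a controlled environment, injury was rated visually versus controls, 0 (no effect) to 100 (complete control).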

crabgrass, Brazil = test: Test E preemergence herbicide test; format: in vivo, Digitaria horizontalis; set-up: key: 0 = no effect, 100 = complete control
Text: (§1) Seeds of plant species selected from corn (Zea mays), soybean (Glycine max), velvetleaf (Abutilon theophrasti), lambsquarters (Chenopodium album), wild poinsettia (Euphorbia heterophylla), pigweed, palmer (palmer pigweed, Amaranthus palmeri), waterhemp (common waterhemp, Amaranthus rudis), surinam grass (Brachiaria decumbens), crabgrass, large (large crabgrass, Digitaria sanguinalis), crabgrass, Brazil (Brazilian crabgrass, Digitaria horizontalis), panicum, fall (fall panicum, Panicum dichotomiflorum), foxtail, giant (giant foxtail, Setaria faberii), foxtail, green (green foxtail, Setaria viridis), goosegrass (Eleusine indica), johnsongrass (Sorghum halepense), ragweed (common ragweed, Ambrosia elatior), barnyardgrass (Echinochloa crus-galli), sandbur (southern sandbur, Cenchrus echinatus), arrowleaf […] rhombifolia), ryegrass, Italian (Italian ryegrass, Lolium multiflorum), dayflower, VA (Virginia dayflower, Commelina virginica), field bindweed (Convolvulus arvensis), morningglory (Ipomoea coccinea), nightshade (eastern black nightshade, Solanum ptycanthum), kochia (Kochia scoparia), nutsedge, yellow (yellow nutsedge, Cyperus esculentus), cocklebur (common cocklebur, Xanthium strumarium), smartweed (ladysthumb smartweed, Polygonum Persicaria) and beggarticks (hairy beggarticks, Bidens pilosa), were planted into a silt loam soil and treated preemergence with test chemicals formulated in a non-phytotoxic solvent mixture which included a surfactant. Treated plants and controls were maintained in a greenhouse for 21 days, after which time all species were compared to controls and visually evaluated. Plant response ratings, summarized in Table E, are based on a scale of 0 to 100 where 0 is no effect and 100 is complete control. A dash (-) response means no test result.

goosegrass = test: Test E preemergence herbicide test; format: in vivo, Eleusine indica; set-up: key: 0 = no effect, 100 = complete control
Text: as §1

ragweed = test: Test E preemergence herbicide test; format: in vivo, Ambrosia elatior; set-up: key: 0 = no effect, 100 = complete control
Outline: (§2)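 Seeds were sown in silt loam soil and treated preemergence with test chemicals in a non-phytotoxic solvent mixture containing a surfactant. Plants were kept in a greenhouse for 21 days, then visually rated against untreated controls on a 0–100 scale (0 = no effect, 100 = complete control).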

field bindweed = test: Test E preemergence herbicide test; format: in vivo, Convolvulus arvensis; set-up: key: 0 = no effect, 100 = complete control
Text: as §1

morningglory = test: Test E preemergence herbicide test; format: in vivo, Ipomoea coccinea; set-up: key: 0 = no effect, 100 = complete control
Outline: as §2

beggarticks = test: Test E preemergence herbicide test; format: in vivo, Bidens pilosa; set-up: key: 0 = no effect, 100 = complete control
Text: as §1

Structure (SMILES)	Plant response rating, Deadnettle (deadnettle; 62 g ai/ha)	Plant response rating, Deadnettle (deadnettle; 125 g ai/ha)	Plant response rating, Deadnettle (deadnettle; 31 g ai/ha)	Plant response rating (deadnettle)	Plant response rating, Crabgrass, Brazil (crabgrass, Brazil; 31 g ai/ha)	Plant response rating, Crabgrass, Brazil (crabgrass, Brazil; 62 g ai/ha)	Plant response rating, Crabgrass, Brazil (crabgrass, Brazil; 125 g ai/ha)	Plant response rating, Crabgrass, Brazil (crabgrass, Brazil; 250 g ai/ha)	Plant response rating, Goosegrass (goosegrass; 31 g ai/ha)	Plant response rating, Goosegrass (goosegrass; 62 g ai/ha)	Plant response rating, Goosegrass (goosegrass; 125 g ai/ha)	Plant response rating, Goosegrass (goosegrass; 250 g ai/ha)	Plant response rating, Ragweed (ragweed; 31 g ai/ha)	Plant response rating, Ragweed (ragweed; 62 g ai/ha)	Plant response rating, Ragweed (ragweed; 125 g ai/ha)	Plant response rating, Ragweed (ragweed; 250 g ai/ha)	Plant response rating, Field Bindweed (field bindweed; 31 g ai/ha)	Plant response rating, Field Bindweed (field bindweed; 62 g ai/ha)	Plant response rating, Field Bindweed (field bindweed; 125 g ai/ha)	Plant response rating, Field Bindweed (field bindweed; 250 g ai/ha)	other results
O=C1NC[C@H](c2cccc(C(F)(F)F)c2)[C@H]1C(=O)Nc1ccccc1F [Compound 204, (3R,4S)—N-(2-fluorophenyl)-2-oxo-4-[3-(trifluoromethyl)phenyl]-3-pyrrolidinecarboxamide]	25	25	25	35	95	95	98	98	0	0	0	0	0	0	0	0	0	0	0	30	Plant response rating, Morningglory (morningglory; 31 g ai/ha): 0; Plant response rating, Morningglory (morningglory; 62 g ai/ha): 0; Plant response rating, Morningglory (morningglory; 125 g ai/ha): 20; Plant response rating, Morningglory (morningglory; 250 g ai/ha): 30; Plant response rating, Beggarticks (beggarticks; 31 g ai/ha): 0; Plant response rating, Beggarticks (beggarticks; 62 g ai/ha): 0; Plant response rating, Beggarticks (beggarticks; 125 g ai/ha): 0; Plant response rating, Beggarticks (beggarticks; 250 g ai/ha): 0
O=C1NC[C@H](c2cccc(C(F)(F)F)c2)[C@H]1C(=O)Nc1cccc(F)c1F [Compound 206]	35	40	20	75	80	98	98	98	0	0	70	90	0	0	0	75	20	20	30	50	Plant response rating, Morningglory (morningglory; 31 g ai/ha): 0; Plant response rating, Morningglory (morningglory; 62 g ai/ha): 0; Plant response rating, Morningglory (morningglory; 125 g ai/ha): 0; Plant response rating, Morningglory (morningglory; 250 g ai/ha): 0; Plant response rating, Beggarticks (beggarticks; 31 g ai/ha): 0; Plant response rating, Beggarticks (beggarticks; 62 g ai/ha): 0; Plant response rating, Beggarticks (beggarticks; 125 g ai/ha): 0; Plant response rating, Beggarticks (beggarticks; 250 g ai/ha): 0
